Reference: PubChem BioAssay (NCI)
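In this assay, cells in 96-well plates receive the compound at five concentrations for 48 hours. Endpoints are linearly interpolated between the surrounding concentrations. TGI is the concentration that stops growth completely.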

Legend:
Assay in all cases: growth of human tumour cells (NCI), 48 h
HCC-2998 colon = test system: HCC-2998 colon
MDA-MB-435 = test system: MDA-MB-435
NCI-H23 lung = test system: NCI-H23 lung
OVCAR-3 ovarian = test system: OVCAR-3 ovarian
OVCAR-4 ovarian = test system: OVCAR-4 ovarian
SF-295 CNS = test system: SF-295 CNS
SF-539 CNS = test system: SF-539 CNS
SR leukemia = test system: SR leukemia
TK-10 renal = test system: TK-10 renal
UACC-62 melanoma = test system: UACC-62 melanoma

In the case of `O=C1NC(N2CCCC(CO)C2)=N/C1=C\c1cccs1` (stereo not given), the TGI (HCC-2998 colon) is reported as > 100 µM, the TGI (MDA-MB-435) is reported as > 100 µM and the TGI (NCI-H23 lung) is reported as > 100 µM. For the same molecule, the TGI (OVCAR-3 ovarian) was > 100 µM, the TGI (OVCAR-4 ovarian) was > 100 µM and the TGI (SF-295 CNS) was > 100 µM. The TGI (SF-539 CNS) was > 100 µM, the TGI (SR leukemia) was > 100 µM and the TGI (TK-10 renal) was > 100 µM. For the same molecule, the TGI (UACC-62 melanoma) was > 100 µM.
With `CC(=O)O[C@H]1[C@@H](N2CCOCC2)C[C@H]2[C@@H]3CC=C4C[C@@H](N5CCCC5)CC[C@]4(C)[C@H]3CC[C@@]21C` the TGI (HCC-2998 colon) was > 100 µM, the TGI (MDA-MB-435) was > 100 µM and the TGI (NCI-H23 lung) was > 100 µM. For the same molecule, the TGI (OVCAR-3 ovarian) was > 100 µM, the TGI (OVCAR-4 ovarian) was > 100 µM and the TGI (SF-295 CNS) was > 100 µM. The TGI (SF-539 CNS) was > 100 µM, the TGI (SR leukemia) was 83.7 µM and the TGI (TK-10 renal) was > 100 µM. For the same molecule, the TGI (UACC-62 melanoma) was > 100 µM.
